PubChem BioAssay (NCI)
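All cell lines were grown in 96-well plates and treated with compound for 48 hours. Abbreviation: GI50, concentration required for 50% inhibition of growth. Definition used: TGI = concentration required for complete inhibition of growth.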

Experiments:
Assay in all cases: NCI tumour cell line growth inhibition, 48 h
HOP-92 NSCLC = tested on: HOP-92 NSCLC
SK-OV-3 ovarian = tested on: SK-OV-3 ovarian
SK-MEL-28 melanoma = tested on: SK-MEL-28 melanoma
CAKI-1 renal = tested on: CAKI-1 renal
NCI-H226 lung = tested on: NCI-H226 lung
HT29 colon = tested on: HT29 colon
SNB-19 CNS = tested on: SNB-19 CNS
SN12K1 renal = tested on: SN12K1 renal
LOX IMVI melanoma = tested on: LOX IMVI melanoma
SF-268 CNS = tested on: SF-268 CNS
NCI-H23 lung = tested on: NCI-H23 lung
SF-539 CNS = tested on: SF-539 CNS
OVCAR-3 ovarian = tested on: OVCAR-3 ovarian
SN12C renal = tested on: SN12C renal
NCI/ADR-RES ovarian = tested on: NCI/ADR-RES ovarian
NCI-H460 lung = tested on: NCI-H460 lung
SK-MEL-5 melanoma = tested on: SK-MEL-5 melanoma
RPMI-8226 leukemia = tested on: RPMI-8226 leukemia
SF-295 CNS = tested on: SF-295 CNS
RXF 393 renal = tested on: RXF 393 renal
DLD-1 colon = tested on: DLD-1 colon
KM20L2 colon = tested on: KM20L2 colon
KM12 colon = tested on: KM12 colon
NCI-H522 lung = tested on: NCI-H522 lung
CCRF-CEM leukemia = tested on: CCRF-CEM leukemia
DMS 273 small cell lung = tested on: DMS 273 small cell lung
OVCAR-4 ovarian = tested on: OVCAR-4 ovarian
EKVX NSCLC = tested on: EKVX NSCLC
UO-31 renal = tested on: UO-31 renal
COLO 205 colon = tested on: COLO 205 colon
DMS 114 small cell lung = tested on: DMS 114 small cell lung
IGROV1 ovarian = tested on: IGROV1 ovarian
P388 leukemia = tested on: P388 leukemia
OVCAR-8 ovarian = tested on: OVCAR-8 ovarian
A549 NSCLC = tested on: A549 NSCLC
OVCAR-5 ovarian = tested on: OVCAR-5 ovarian
MOLT-4 leukemia = tested on: MOLT-4 leukemia
P388/ADR leukemia = tested on: P388/ADR leukemia
HCT-15 colon = tested on: HCT-15 colon
SK-MEL-2 melanoma = tested on: SK-MEL-2 melanoma
M19-MEL melanoma = tested on: M19-MEL melanoma
UACC-257 melanoma = tested on: UACC-257 melanoma
K-562 leukemia = tested on: K-562 leukemia
HOP-62 NSCLC = tested on: HOP-62 NSCLC
MALME-3M melanoma = tested on: MALME-3M melanoma
SW-620 colon = tested on: SW-620 colon
HCC-2998 colon = tested on: HCC-2998 colon
SNB-75 CNS = tested on: SNB-75 CNS
U251 CNS = tested on: U251 CNS
HOP-18 NSCLC = tested on: HOP-18 NSCLC
HL-60(TB) leukemia = tested on: HL-60(TB) leukemia
A498 renal = tested on: A498 renal
HCT-116 colon = tested on: HCT-116 colon
MCF7 breast = tested on: MCF7 breast
UACC-62 melanoma = tested on: UACC-62 melanoma
XF 498 CNS = tested on: XF 498 CNS
SR leukemia = tested on: SR leukemia
SNB-78 CNS = tested on: SNB-78 CNS
786-0 renal = tested on: 786-0 renal
LXFL 529 NSCLC = tested on: LXFL 529 NSCLC
TK-10 renal = tested on: TK-10 renal
M14 melanoma = tested on: M14 melanoma
ACHN renal = tested on: ACHN renal

In the case of `COc1cccc2c1C(=O)c1c(O)c3c(c(O)c1C2=O)C[C@@](O)(C(=O)CN1CCOCC1)C[C@@H]3OC1CC(N)C(O)C(C)O1` (some centres not stated), the GI50 (HOP-92 NSCLC) is reported as 5.27 µM, the TGI (HOP-92 NSCLC) is reported as 33.9 µM and the TGI (SK-OV-3 ovarian) is reported as over 100 µM. The TGI (SK-MEL-28 melanoma) was 29.1 µM, the GI50 (CAKI-1 renal) was 2.61 µM and the TGI (CAKI-1 renal) was over 53.8 µM. For the same compound, the TGI (NCI-H226 lung) was 8.78 µM, the GI50 (HT29 colon) was 3.87 µM and the TGI (SNB-19 CNS) was over 100 µM. It also gave a TGI (SN12K1 renal) of 30.1 µM, a TGI (LOX IMVI melanoma) of 45.3 µM and a TGI (SF-268 CNS) of 51.3 µM. It also gave a TGI (NCI-H23 lung) of 20.9 µM, a TGI (SF-539 CNS) of 23.6 µM and a GI50 (OVCAR-3 ovarian) of 10.6 µM. It also gave a TGI (OVCAR-3 ovarian) of 57.4 µM, a TGI (SN12C renal) of over 100 µM and a TGI (NCI/ADR-RES ovarian) of over 100 µM. For the same compound, the TGI (NCI-H460 lung) was over 69.9 µM, the TGI (SK-MEL-5 melanoma) was 15.7 µM and the TGI (RPMI-8226 leukemia) was 43.2 µM. For the same compound, the TGI (SF-295 CNS) was 39.3 µM, the TGI (RXF 393 renal) was 23.9 µM and the TGI (DLD-1 colon) was over 74.4 µM. For the same compound, the TGI (KM20L2 colon) was 71.5 µM, the TGI (KM12 colon) was 51.5 µM and the TGI (NCI-H522 lung) was 15.4 µM. It also gave a GI50 (CCRF-CEM leukemia) of 0.964 µM, a TGI (CCRF-CEM leukemia) of over 23.1 µM and a TGI (DMS 273 small cell lung) of 20.5 µM. The TGI (OVCAR-4 ovarian) was 69.6 µM, the TGI (EKVX NSCLC) was 55.9 µM and the TGI (UO-31 renal) was 59.6 µM. It also gave a TGI (COLO 205 colon) of 24.1 µM, a TGI (DMS 114 small cell lung) of 21.8 µM and a TGI (IGROV1 ovarian) of over 90.6 µM. The TGI (P388 leukemia) was 2.29 µM, the TGI (OVCAR-8 ovarian) was 89.5 µM and the TGI (A549 NSCLC) was 48.6 µM. For the same compound, the TGI (OVCAR-5 ovarian) was 57.6 µM, the GI50 (MOLT-4 leukemia) was 0.234 µM and the TGI (MOLT-4 leukemia) was 1.15 µM. It also gave a TGI (P388/ADR leukemia) of 71.7 µM, a TGI (HCT-15 colon) of 77.6 µM and a TGI (SK-MEL-2 melanoma) of 22.7 µM. For the same compound, the TGI (M19-MEL melanoma) was 18.1 µM, the GI50 (UACC-257 melanoma) was 11.3 µM and the TGI (K-562 leukemia) was 61.7 µM. It also gave a TGI (HOP-62 NSCLC) of 14.2 µM, a TGI (MALME-3M melanoma) of 14.2 µM and a TGI (SW-620 colon) of over 78.7 µM. For the same compound, the TGI (HCC-2998 colon) was 23.3 µM, the TGI (SNB-75 CNS) was 22.4 µM and the TGI (U251 CNS) was over 100 µM. The GI50 (HOP-18 NSCLC) was 1.43 µM, the TGI (HOP-18 NSCLC) was 22 µM and the TGI (HL-60(TB) leukemia) was 5.19 µM. For the same compound, the TGI (A498 renal) was 31.1 µM, the TGI (HCT-116 colon) was over 100 µM and the TGI (MCF7 breast) was over 100 µM. For the same compound, the TGI (UACC-62 melanoma) was 15.7 µM and the TGI (XF 498 CNS) was 8.33 µM.
In the case of `Cc1c(OCCCOc2ccc3c(=O)cc(-c4ccccc4)oc3c2C)ccc2c(=O)cc(-c3ccccc3)oc12`, the TGI (SR leukemia) is reported as over 100 µM, the TGI (HOP-92 NSCLC) is reported as over 100 µM and the TGI (SK-OV-3 ovarian) is reported as over 100 µM. For the same compound, the TGI (SK-MEL-28 melanoma) was over 100 µM, the TGI (CAKI-1 renal) was over 100 µM and the TGI (HT29 colon) was over 100 µM. It also gave a TGI (SNB-19 CNS) of over 100 µM, a TGI (LOX IMVI melanoma) of over 100 µM and a TGI (SF-268 CNS) of over 100 µM. It also gave a TGI (NCI-H23 lung) of over 100 µM, a TGI (SF-539 CNS) of over 100 µM and a TGI (OVCAR-3 ovarian) of over 100 µM. The TGI (NCI-H460 lung) was over 100 µM, the TGI (SK-MEL-5 melanoma) was over 100 µM and the TGI (RPMI-8226 leukemia) was over 100 µM. The TGI (SNB-78 CNS) was over 100 µM, the TGI (SF-295 CNS) was over 100 µM and the TGI (RXF 393 renal) was over 100 µM. The TGI (DLD-1 colon) was over 100 µM, the TGI (KM20L2 colon) was over 100 µM and the TGI (KM12 colon) was over 100 µM. The TGI (NCI-H522 lung) was over 100 µM, the TGI (CCRF-CEM leukemia) was over 100 µM and the TGI (DMS 273 small cell lung) was over 100 µM. The TGI (EKVX NSCLC) was over 100 µM, the TGI (786-0 renal) was over 100 µM and the TGI (LXFL 529 NSCLC) was over 100 µM. For the same compound, the TGI (UO-31 renal) was over 100 µM, the TGI (TK-10 renal) was over 100 µM and the TGI (DMS 114 small cell lung) was over 100 µM. For the same compound, the TGI (IGROV1 ovarian) was over 100 µM, the TGI (OVCAR-8 ovarian) was over 100 µM and the TGI (A549 NSCLC) was over 100 µM. It also gave a TGI (OVCAR-5 ovarian) of over 100 µM, a TGI (MOLT-4 leukemia) of over 100 µM and a TGI (HCT-15 colon) of over 100 µM. For the same compound, the TGI (SK-MEL-2 melanoma) was over 100 µM, the TGI (M19-MEL melanoma) was over 100 µM and the TGI (UACC-257 melanoma) was over 100 µM. It also gave a TGI (K-562 leukemia) of over 100 µM, a TGI (HOP-62 NSCLC) of over 100 µM and a TGI (MALME-3M melanoma) of over 100 µM. The TGI (SW-620 colon) was over 100 µM, the TGI (U251 CNS) was over 100 µM and the TGI (HOP-18 NSCLC) was over 100 µM. For the same compound, the TGI (M14 melanoma) was over 100 µM, the TGI (HL-60(TB) leukemia) was over 100 µM and the TGI (A498 renal) was over 100 µM. It also gave a TGI (HCT-116 colon) of over 100 µM, a TGI (UACC-62 melanoma) of over 100 µM and a TGI (XF 498 CNS) of over 100 µM.
`O=S(=O)(c1ccccc1)c1nccs1` showed a TGI (SR leukemia) of over 100 µM, a TGI (SK-OV-3 ovarian) of over 100 µM and a TGI (SK-MEL-28 melanoma) of over 100 µM. The TGI (CAKI-1 renal) was over 100 µM, the TGI (NCI-H226 lung) was over 100 µM and the TGI (HT29 colon) was over 100 µM. The TGI (SNB-19 CNS) was over 100 µM, the TGI (LOX IMVI melanoma) was over 100 µM and the TGI (SF-268 CNS) was over 100 µM. The TGI (NCI-H23 lung) was over 100 µM, the TGI (SF-539 CNS) was over 100 µM and the TGI (OVCAR-3 ovarian) was over 100 µM. For the same compound, the TGI (SN12C renal) was over 100 µM, the TGI (NCI-H460 lung) was over 100 µM and the TGI (SK-MEL-5 melanoma) was over 100 µM. The TGI (RPMI-8226 leukemia) was over 100 µM, the TGI (SNB-78 CNS) was over 100 µM and the TGI (SF-295 CNS) was over 100 µM. For the same compound, the TGI (DLD-1 colon) was over 100 µM, the TGI (KM20L2 colon) was over 100 µM and the TGI (KM12 colon) was over 100 µM. The TGI (NCI-H522 lung) was over 100 µM, the TGI (DMS 273 small cell lung) was over 100 µM and the TGI (OVCAR-4 ovarian) was over 100 µM. The TGI (EKVX NSCLC) was over 100 µM, the TGI (786-0 renal) was over 100 µM and the TGI (LXFL 529 NSCLC) was over 100 µM. For the same compound, the TGI (UO-31 renal) was over 100 µM, the TGI (COLO 205 colon) was over 100 µM and the TGI (TK-10 renal) was over 100 µM. For the same compound, the TGI (DMS 114 small cell lung) was over 100 µM, the TGI (IGROV1 ovarian) was over 100 µM and the TGI (OVCAR-8 ovarian) was over 100 µM. For the same compound, the TGI (A549 NSCLC) was over 100 µM, the TGI (OVCAR-5 ovarian) was over 100 µM and the TGI (MOLT-4 leukemia) was over 100 µM. The TGI (HCT-15 colon) was over 100 µM, the TGI (SK-MEL-2 melanoma) was over 100 µM and the TGI (M19-MEL melanoma) was over 100 µM. The TGI (UACC-257 melanoma) was over 100 µM, the TGI (K-562 leukemia) was over 100 µM and the TGI (HOP-62 NSCLC) was over 100 µM. The TGI (ACHN renal) was over 100 µM, the TGI (SW-620 colon) was over 100 µM and the TGI (HCC-2998 colon) was over 100 µM. For the same compound, the TGI (SNB-75 CNS) was over 100 µM, the TGI (U251 CNS) was over 100 µM and the TGI (HOP-18 NSCLC) was over 100 µM. The TGI (M14 melanoma) was over 100 µM, the TGI (HL-60(TB) leukemia) was over 100 µM and the TGI (A498 renal) was over 100 µM. It also gave a TGI (HCT-116 colon) of over 100 µM, a TGI (UACC-62 melanoma) of over 100 µM and a TGI (XF 498 CNS) of over 100 µM.
